Eleven compounds from ChEMBL document CHEMBL5291721, “A preclinical secondary pharmacology resource illuminates target-adverse drug reaction associations of marketed drugs” (Nat Commun, 2023) can be followed below.

Some targets named below: Vasopressin V1a receptor (Homo sapiens, UniProt P37288); Histamine H1 receptor (Homo sapiens, UniProt P35367); D(3) dopamine receptor (Homo sapiens, UniProt P35462).
Experiment [1] addresses Voltage-dependent L-type calcium channel subunit alpha-1C (Rattus norvegicus, UniProt P22002). The format is functional.
Experiment [2] has as its target Beta-1 adrenergic receptor (Homo sapiens, UniProt P08588). The format is functional.
Experiment [3] deals with Sodium-dependent serotonin transporter (Homo sapiens, UniProt P31645).
Chain of Sodium-dependent serotonin transporter (P31645 whole entry): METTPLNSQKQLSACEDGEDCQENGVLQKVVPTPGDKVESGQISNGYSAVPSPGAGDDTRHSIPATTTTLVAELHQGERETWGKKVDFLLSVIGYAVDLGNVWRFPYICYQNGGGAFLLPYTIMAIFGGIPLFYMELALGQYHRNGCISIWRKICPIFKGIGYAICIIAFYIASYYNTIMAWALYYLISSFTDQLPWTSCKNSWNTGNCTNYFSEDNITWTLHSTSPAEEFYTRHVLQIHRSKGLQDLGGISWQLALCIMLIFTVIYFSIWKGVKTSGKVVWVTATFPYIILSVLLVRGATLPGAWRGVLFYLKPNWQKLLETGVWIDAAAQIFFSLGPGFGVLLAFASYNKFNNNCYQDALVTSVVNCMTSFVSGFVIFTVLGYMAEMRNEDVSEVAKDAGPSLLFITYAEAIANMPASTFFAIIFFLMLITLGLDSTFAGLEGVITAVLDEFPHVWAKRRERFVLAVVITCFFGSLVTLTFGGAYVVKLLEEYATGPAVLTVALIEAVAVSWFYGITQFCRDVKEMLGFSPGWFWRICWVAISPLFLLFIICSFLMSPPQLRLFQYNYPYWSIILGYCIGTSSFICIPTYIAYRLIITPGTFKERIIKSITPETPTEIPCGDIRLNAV
Experiment [4] has as its target 5-hydroxytryptamine receptor 2A (Homo sapiens, UniProt P28223). In kind it is functional, cell-based.
The target in another experiment is T1, B2 bradykinin receptor (Homo sapiens, UniProt P30411).
T1 sequence (P30411 whole entry): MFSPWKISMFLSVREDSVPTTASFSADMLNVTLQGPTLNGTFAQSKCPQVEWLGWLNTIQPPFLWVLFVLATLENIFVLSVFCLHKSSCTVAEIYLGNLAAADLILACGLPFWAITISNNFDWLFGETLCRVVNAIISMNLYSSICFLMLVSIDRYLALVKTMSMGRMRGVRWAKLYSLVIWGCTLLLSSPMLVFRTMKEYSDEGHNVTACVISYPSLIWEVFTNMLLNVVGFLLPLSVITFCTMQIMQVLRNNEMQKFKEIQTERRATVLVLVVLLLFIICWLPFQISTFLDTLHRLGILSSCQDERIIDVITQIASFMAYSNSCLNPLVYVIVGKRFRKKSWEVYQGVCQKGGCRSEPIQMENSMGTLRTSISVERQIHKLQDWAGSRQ

For experiment [5], the target named is Glutamate receptor ionotropic, NMDA 1 (Rattus norvegicus, UniProt P35439).
For experiment [6], the target named is T2, Mu-type opioid receptor (Homo sapiens, UniProt P35372).
T2 sequence (P35372 whole entry): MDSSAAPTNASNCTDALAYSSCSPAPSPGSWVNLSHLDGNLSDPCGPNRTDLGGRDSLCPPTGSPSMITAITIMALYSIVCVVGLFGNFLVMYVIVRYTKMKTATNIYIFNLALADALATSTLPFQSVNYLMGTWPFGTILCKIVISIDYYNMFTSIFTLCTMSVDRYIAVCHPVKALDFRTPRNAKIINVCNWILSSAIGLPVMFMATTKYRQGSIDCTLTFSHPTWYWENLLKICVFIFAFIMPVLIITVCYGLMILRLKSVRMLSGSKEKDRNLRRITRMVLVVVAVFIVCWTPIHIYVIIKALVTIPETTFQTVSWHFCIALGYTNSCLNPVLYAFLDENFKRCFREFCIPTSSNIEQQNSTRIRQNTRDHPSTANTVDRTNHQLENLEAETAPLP
For experiment [7], the target named is T3, Muscarinic acetylcholine receptor M1 (Homo sapiens, UniProt P11229).
T3 sequence (P11229 whole entry): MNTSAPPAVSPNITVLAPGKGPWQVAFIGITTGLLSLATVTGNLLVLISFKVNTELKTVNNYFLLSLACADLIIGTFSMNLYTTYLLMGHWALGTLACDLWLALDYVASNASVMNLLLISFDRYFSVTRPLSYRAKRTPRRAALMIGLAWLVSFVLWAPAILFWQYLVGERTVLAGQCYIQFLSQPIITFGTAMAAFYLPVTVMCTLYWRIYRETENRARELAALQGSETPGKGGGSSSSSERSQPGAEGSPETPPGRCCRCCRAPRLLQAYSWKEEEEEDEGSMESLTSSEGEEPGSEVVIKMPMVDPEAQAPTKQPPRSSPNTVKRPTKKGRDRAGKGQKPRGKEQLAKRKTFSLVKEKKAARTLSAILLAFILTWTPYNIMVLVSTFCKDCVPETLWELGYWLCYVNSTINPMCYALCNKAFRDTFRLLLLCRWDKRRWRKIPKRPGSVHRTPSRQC
In kind it is functional.

Experiment [8] has as its target T4, Alpha-1A adrenergic receptor (Homo sapiens, UniProt P35348).
T4 sequence (P35348 whole entry): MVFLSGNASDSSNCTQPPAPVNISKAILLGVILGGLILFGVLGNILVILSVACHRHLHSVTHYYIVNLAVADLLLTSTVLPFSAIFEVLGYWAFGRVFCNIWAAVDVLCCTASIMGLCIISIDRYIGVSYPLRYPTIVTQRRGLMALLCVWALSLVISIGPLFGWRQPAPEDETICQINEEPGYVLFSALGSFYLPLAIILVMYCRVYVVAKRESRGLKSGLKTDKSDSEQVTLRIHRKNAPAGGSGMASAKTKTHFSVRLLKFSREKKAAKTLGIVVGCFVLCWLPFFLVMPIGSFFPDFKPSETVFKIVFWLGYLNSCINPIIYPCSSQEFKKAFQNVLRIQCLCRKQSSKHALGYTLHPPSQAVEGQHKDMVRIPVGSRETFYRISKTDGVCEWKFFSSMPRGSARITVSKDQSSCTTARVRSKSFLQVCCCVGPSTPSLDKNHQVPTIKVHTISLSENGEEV
In kind it is functional, cell-based.

For experiment [9], the target named is 3',5'-cyclic-AMP phosphodiesterase 4A (Homo sapiens, UniProt P27815). The format is functional.
Experiment [10] has as its target T2, Mu-type opioid receptor. The source holds these as a separate data set.
In experiment [11] the target is 5-hydroxytryptamine receptor 2B (Homo sapiens, UniProt P41595). The format is functional, cell-based.
A further experiment addresses T5, Thromboxane A2 receptor (Homo sapiens, UniProt P21731).
T5 sequence (P21731 whole entry): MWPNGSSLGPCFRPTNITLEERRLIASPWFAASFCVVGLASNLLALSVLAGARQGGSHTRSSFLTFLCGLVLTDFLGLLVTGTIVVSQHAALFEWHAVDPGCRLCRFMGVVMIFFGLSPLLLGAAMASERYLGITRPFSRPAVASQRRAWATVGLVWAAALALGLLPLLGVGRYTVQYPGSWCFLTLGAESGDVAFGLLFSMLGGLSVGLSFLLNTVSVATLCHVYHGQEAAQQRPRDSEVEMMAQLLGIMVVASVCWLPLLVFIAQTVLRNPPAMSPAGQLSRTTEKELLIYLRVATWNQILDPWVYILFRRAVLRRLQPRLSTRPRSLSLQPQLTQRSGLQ
The format is functional, cell-based.

Experiment [12] addresses T6, Muscarinic acetylcholine receptor M2 (Homo sapiens, UniProt P08172).
T6 sequence (P08172 whole entry): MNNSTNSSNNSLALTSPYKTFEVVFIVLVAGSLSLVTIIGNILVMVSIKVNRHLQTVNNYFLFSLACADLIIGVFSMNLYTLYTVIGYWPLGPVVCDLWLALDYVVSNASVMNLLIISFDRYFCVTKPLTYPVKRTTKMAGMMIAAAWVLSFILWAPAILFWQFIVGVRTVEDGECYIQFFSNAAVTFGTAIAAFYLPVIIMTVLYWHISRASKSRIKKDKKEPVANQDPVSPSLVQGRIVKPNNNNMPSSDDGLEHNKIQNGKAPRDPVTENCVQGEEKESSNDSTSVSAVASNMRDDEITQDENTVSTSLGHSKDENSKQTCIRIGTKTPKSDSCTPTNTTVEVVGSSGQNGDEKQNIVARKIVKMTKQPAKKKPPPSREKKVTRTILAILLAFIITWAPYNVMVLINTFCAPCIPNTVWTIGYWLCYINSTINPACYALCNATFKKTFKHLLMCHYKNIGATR

SMILES strings stand for the structures. A value given as a limit tells only on which side of the number the result lay.
Further: assay procedure not described here.

Chain of Vasopressin V1a receptor (P37288 whole entry): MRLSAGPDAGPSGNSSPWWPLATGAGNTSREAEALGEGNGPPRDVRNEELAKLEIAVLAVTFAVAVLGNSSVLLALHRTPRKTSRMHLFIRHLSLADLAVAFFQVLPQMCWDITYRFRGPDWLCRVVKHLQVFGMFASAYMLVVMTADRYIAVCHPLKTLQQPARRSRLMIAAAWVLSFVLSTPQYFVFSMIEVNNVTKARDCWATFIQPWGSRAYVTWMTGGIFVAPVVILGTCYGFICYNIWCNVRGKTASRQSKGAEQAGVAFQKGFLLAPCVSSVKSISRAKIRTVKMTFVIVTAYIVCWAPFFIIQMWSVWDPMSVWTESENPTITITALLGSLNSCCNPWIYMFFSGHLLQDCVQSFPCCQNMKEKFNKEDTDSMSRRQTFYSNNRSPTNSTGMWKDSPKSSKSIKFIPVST
Chain of Histamine H1 receptor (P35367 whole entry): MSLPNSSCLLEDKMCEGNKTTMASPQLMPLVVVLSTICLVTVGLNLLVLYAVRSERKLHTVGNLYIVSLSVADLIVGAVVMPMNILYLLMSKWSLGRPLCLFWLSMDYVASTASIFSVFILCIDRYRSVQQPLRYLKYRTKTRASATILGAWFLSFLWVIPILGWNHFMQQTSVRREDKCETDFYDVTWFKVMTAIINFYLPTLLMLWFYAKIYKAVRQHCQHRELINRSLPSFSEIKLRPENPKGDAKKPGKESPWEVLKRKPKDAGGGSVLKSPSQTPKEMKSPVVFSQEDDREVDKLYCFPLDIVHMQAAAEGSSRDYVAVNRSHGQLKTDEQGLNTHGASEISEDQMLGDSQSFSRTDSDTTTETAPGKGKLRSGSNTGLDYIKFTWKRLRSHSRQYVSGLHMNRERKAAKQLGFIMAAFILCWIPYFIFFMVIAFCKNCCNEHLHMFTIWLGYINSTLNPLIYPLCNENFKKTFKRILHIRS
Chain of Beta-1 adrenergic receptor (P08588 whole entry): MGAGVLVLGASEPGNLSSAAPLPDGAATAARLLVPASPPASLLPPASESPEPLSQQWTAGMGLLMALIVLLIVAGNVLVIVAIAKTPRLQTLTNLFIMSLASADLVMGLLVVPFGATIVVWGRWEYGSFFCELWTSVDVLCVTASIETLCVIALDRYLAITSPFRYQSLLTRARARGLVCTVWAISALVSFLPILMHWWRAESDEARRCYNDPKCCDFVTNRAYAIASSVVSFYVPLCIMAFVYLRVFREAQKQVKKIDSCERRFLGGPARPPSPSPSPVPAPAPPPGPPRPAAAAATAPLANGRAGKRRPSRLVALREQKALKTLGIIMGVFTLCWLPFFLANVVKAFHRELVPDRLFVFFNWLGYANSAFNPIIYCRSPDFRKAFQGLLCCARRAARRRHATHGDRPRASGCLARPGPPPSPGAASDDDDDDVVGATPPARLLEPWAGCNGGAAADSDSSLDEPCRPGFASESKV
Chain of 5-hydroxytryptamine receptor 2A (P28223 whole entry): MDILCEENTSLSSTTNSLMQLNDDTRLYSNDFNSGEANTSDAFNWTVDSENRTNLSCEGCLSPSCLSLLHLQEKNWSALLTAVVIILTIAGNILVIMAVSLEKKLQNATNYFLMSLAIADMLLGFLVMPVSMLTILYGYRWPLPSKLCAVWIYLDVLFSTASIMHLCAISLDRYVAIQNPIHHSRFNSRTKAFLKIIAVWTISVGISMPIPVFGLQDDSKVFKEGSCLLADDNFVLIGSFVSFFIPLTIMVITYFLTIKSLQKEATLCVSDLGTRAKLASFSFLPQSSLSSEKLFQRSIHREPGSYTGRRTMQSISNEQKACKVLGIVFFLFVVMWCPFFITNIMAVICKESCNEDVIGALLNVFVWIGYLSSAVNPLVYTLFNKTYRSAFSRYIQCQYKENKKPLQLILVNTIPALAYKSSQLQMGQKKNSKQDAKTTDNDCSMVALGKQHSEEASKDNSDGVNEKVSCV
Chain of Voltage-dependent L-type calcium channel subunit alpha-1C (P22002 whole entry): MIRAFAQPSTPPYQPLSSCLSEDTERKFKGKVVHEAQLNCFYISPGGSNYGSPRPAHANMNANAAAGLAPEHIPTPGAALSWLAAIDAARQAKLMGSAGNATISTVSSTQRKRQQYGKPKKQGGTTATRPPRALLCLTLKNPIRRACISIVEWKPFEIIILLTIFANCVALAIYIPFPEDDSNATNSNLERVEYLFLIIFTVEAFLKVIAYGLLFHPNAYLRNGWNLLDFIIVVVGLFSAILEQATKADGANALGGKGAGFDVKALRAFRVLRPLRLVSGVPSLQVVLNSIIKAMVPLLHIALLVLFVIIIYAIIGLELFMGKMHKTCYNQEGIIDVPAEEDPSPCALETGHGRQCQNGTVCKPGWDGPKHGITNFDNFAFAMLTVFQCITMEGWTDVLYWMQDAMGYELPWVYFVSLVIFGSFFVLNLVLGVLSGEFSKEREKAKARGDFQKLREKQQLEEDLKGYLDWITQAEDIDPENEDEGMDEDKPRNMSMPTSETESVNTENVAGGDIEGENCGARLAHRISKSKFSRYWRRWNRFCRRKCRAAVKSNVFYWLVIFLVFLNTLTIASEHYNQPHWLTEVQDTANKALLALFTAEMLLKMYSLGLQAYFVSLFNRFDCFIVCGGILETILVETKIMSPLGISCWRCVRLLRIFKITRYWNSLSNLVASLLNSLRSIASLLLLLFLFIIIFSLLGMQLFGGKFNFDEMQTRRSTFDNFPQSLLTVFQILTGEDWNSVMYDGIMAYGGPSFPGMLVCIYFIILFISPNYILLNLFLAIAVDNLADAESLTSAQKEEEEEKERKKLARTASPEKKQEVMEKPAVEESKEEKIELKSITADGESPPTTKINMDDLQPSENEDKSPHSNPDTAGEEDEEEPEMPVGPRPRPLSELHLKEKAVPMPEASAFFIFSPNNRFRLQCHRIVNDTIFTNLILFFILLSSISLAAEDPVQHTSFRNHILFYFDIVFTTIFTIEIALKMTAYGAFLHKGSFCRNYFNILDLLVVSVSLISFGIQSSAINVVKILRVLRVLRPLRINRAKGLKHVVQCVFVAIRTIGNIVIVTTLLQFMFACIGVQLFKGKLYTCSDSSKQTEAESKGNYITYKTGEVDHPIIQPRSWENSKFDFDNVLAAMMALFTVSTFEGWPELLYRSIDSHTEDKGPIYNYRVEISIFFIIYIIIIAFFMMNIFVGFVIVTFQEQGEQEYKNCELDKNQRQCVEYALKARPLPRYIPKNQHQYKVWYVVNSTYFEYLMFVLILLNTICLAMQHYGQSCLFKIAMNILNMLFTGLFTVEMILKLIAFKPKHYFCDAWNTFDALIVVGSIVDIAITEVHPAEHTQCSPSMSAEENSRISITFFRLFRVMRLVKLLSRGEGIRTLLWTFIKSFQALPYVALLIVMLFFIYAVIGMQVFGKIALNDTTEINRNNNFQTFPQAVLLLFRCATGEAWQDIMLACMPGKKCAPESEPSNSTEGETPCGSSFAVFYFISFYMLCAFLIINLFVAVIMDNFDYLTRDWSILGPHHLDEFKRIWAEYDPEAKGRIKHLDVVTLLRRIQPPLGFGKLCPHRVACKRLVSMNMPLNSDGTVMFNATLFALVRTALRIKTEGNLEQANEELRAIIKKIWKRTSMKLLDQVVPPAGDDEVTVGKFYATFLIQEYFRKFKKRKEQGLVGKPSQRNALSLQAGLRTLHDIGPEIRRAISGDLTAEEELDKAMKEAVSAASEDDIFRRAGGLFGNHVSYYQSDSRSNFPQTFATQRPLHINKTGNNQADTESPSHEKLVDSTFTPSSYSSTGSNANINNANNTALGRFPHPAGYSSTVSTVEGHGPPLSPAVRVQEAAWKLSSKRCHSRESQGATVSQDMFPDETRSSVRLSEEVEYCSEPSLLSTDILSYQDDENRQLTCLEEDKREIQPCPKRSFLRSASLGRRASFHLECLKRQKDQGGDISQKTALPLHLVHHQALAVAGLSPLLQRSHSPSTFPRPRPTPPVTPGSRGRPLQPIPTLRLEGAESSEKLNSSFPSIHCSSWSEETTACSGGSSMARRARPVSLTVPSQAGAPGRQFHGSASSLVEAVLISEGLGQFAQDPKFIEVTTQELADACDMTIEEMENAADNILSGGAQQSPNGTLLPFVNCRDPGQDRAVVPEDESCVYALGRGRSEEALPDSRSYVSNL

The AC50 is the concentration giving half of the maximal activity seen. `C=CC1=C(C(=O)O)N2C(=O)[C@@H](NC(=O)/C(=N\O)c3csc(N)n3)[C@H]2SC1`: the AC50 on Vasopressin V1a receptor is more than 30 µM; in [1], more than 10 µM; in experiment [2] it was more than 30 µM; in [3] it was more than 30 µM; in experiment [4] it was more than 30 µM; at Histamine H1 receptor, more than 10 µM. Also, the AC50 at B2 bradykinin receptor is more than 30 µM; in [5], more than 10 µM; on Mu-type opioid receptor [6] it was more than 30 µM; in experiment [7], more than 10 µM.
Take `CN(C)CCN(Cc1ccccc1)c1ccccn1` [TRIPELENNAMINE]: the half-maximal activity concentration (AC50) on Vasopressin V1a receptor was more than 10 µM; in experiment [8], more than 30 µM; in experiment [1], more than 10 µM; in [9], more than 30 µM; in [2], more than 30 µM; in experiment [3], 0.209 µM. For the same compound, the AC50 in [4] is more than 10 µM; on Histamine H1 receptor it was 0.08 µM; on Mu-type opioid receptor [10], more than 30 µM; on B2 bradykinin receptor, more than 10 µM; in [11], more than 30 µM; in [5], more than 10 µM. The AC50 on Mu-type opioid receptor [6] is more than 30 µM; on Thromboxane A2 receptor, more than 30 µM; in experiment [12] it was 4.72 µM; in [7], more than 10 µM.
With `C[C@]12CCC(=O)C=C1CC[C@H]1[C@@H]3CC[C@](O)(C(=O)CO)[C@@]3(C)C[C@H](O)[C@@]12F` [FLUDROCORTISONE], the AC50 on Vasopressin V1a receptor is more than 30 µM; in experiment [1] it was more than 10 µM; in [2], more than 10 µM; in [3], more than 30 µM; in experiment [4] it was more than 30 µM; at Histamine H1 receptor, more than 10 µM. The AC50 on B2 bradykinin receptor is more than 30 µM; in experiment [5], more than 10 µM; at Mu-type opioid receptor [6], more than 30 µM; in [7] it was more than 10 µM.
With `C[C@H](Nc1ncnc2[nH]cnc12)c1cc2cccc(Cl)c2c(=O)n1-c1ccccc1` [DUVELISIB], the AC50 (at Vasopressin V1a receptor; on D(3) dopamine receptor; in [9]; in [2]; in experiment [3]; in experiment [4]) was more than 30 µM each time. Further, the AC50 (at Histamine H1 receptor; on Mu-type opioid receptor [10]; in [11]; at Mu-type opioid receptor [6]; at Thromboxane A2 receptor; in experiment [12]) was more than 30 µM throughout. Moreover, the AC50 in experiment [7] was more than 30 µM.
With `OCCOCCN1CCN(C(c2ccccc2)c2ccc(Cl)cc2)CC1` (stereo not given) [HYDROXYZINE], the AC50 was more than 10 µM on Vasopressin V1a receptor; more than 10 µM in [1]; more than 10 µM in [2]; more than 10 µM in experiment [3]; more than 30 µM in experiment [4]; 0.039 µM on Histamine H1 receptor. Also, the AC50 was more than 30 µM on B2 bradykinin receptor, more than 10 µM in [5], more than 30 µM on Mu-type opioid receptor [6] and more than 10 µM in experiment [7].
As to `CNC1(C)C2CCC(C2)C1(C)C` (stereo not given) [MECAMYLAMINE], the AC50 (on Vasopressin V1a receptor; in experiment [1]; in experiment [2]; in experiment [3]; in [4]; at Histamine H1 receptor) was more than 10 µM throughout. Also, the AC50 on B2 bradykinin receptor is more than 10 µM; in experiment [5], more than 10 µM; at Mu-type opioid receptor [6] it was more than 30 µM; in experiment [7] it was more than 10 µM.
As for `CC(=O)SCC(Cc1ccccc1)C(=O)NCC(=O)OCc1ccccc1` (stereo not given) [RACECADOTRIL], the AC50 on Vasopressin V1a receptor is more than 30 µM; in experiment [1] it was 28 µM; in [2] it was more than 30 µM; in experiment [3], more than 30 µM; in [4], more than 30 µM; on Histamine H1 receptor it was more than 30 µM. Further, the AC50 (on B2 bradykinin receptor; in experiment [5]; at Mu-type opioid receptor [6]; in experiment [7]) was more than 30 µM throughout.
For `CCOc1ccccc1OCCN[C@H](C)Cc1ccc(OC)c(S(N)(=O)=O)c1` [TAMSULOSIN], the AC50 at Vasopressin V1a receptor is more than 30 µM; in experiment [1], more than 10 µM; in experiment [2] it was 2.5 µM; in experiment [3] it was more than 30 µM; in experiment [4], more than 30 µM; at Histamine H1 receptor it was more than 10 µM. In addition, the AC50 is more than 30 µM at B2 bradykinin receptor, more than 10 µM in experiment [5], 5.3 µM on Mu-type opioid receptor [6] and more than 10 µM in experiment [7].
In the case of `Nc1c2c(nc3ccccc13)CCCC2O` (stereo not given) [VELNACRINE], the concentration at half-maximal activity (AC50) (at Vasopressin V1a receptor; in [2]; in [3]; in experiment [4]; at Histamine H1 receptor; on Mu-type opioid receptor [6]) was more than 30 µM throughout. This compound gave an AC50 in [7] of more than 30 µM.
In the case of `O=C(O)[C@H]1/C(=C/CO)O[C@@H]2CC(=O)N21` [CLAVULANIC ACID], the AC50 (on Vasopressin V1a receptor; in experiment [2]; in experiment [3]; in experiment [4]; at Histamine H1 receptor; on Mu-type opioid receptor [6]) was more than 30 µM in each case. The AC50 in experiment [7] was more than 30 µM.
For `CCC[C@@]1(CCc2ccccc2)CC(O)=C([C@H](CC)c2cccc(NS(=O)(=O)c3ccc(C(F)(F)F)cn3)c2)C(=O)O1`, the concentration at half-maximal activity (AC50) (at Vasopressin V1a receptor; in [2]; in experiment [3]; in [4]; on Histamine H1 receptor; at Mu-type opioid receptor [6]) was more than 30 µM in each case. Moreover, in experiment [7], the AC50 was more than 30 µM.
